Source: publication PMC8780741, “Integration of In Silico, In Vitro and In Situ Tools for the Preformulation and Characterization of a Novel Cardio-Neuroprotective Compound during the Early Stages of Drug Development” (Pharmaceutics, 2022)
Converted amounts (≈) assume the structure as drawn. Like-named read-outs stand apart in the source and are kept apart here.

Key:
[1] = Thermodynamic solubility, shake-flask saturation method, and dose number; type: physicochemical; conditions: for solubility: USP buffer solution; for Do (dose number): D = 140 mg, 250 mL
Procedure: For the solubility study, six buffer solutions (pH 1.2, 3.0, 4.0, 4.5, 6.8 and 7.4) were prepared following the protocols published in the USP XXXVIII, United States Pharmacopoeia, as described above.
Solubility experiments for JM-20 were carried out according to the main regulatory guidelines for biowaivers. The tests were performed at the three recommended pH values (pH 1.2, 4.5 and 6.8) as well as pH […], 4.0 and 7.4 (USP buffer formulations). The shake-flask saturation method proposed by Baka et al. was used in the solubility study and the recommendations of Avdeef et al. were followed to improve the quality of the solubility data. The temperature was regulated at 37 °C. Equilibration times were 6 h stirring + 18 h sedimentation. At the end of equilibration, the two phases were separated by careful decantation. The samples were analyzed with a Thermo Fisher UV-Vis Spectrophotometer (λmax = 262 nm). A linear range of 2–20 μg/mL was obtained (r^2 > 0.99). Once the solubility range was determined, the dose number (Do) was calculated following Equation (1) (1) Do=D/Vo/Cs where D is the highest strength or highest dose administered (mg) according to FDA or EMA criteria, Vo is the volume of water ([…]).

[2] = Provisional BCS classification; parameters: key: drugs with high solubility/high permeability (Class 1); drugs with low solubility/high permeability (Class 2); drugs with high solubility/low permeability (Class 3); drugs with low solubility/low permeability (Class 4)
From the text: The Biopharmaceutics Classification System (BCS) is a widely used scientific framework for waiver of in vivo bioequivalence studies, as well as for decision-making in drug discovery and development. This tool classifies drug substances according to solubility/dosage and permeability values as follows: drugs with high solubility/high permeability (Class 1), drugs with low solubility/high permeability (Class 2), drugs with high solubility/low permeability (Class 3) and drugs with low solubility/low permeability (Class 4). BCS has proven to be a very important tool for the identification of compounds whose solubility and absorption characteristics may be sensitive to physiological and formulation variables, allowing early optimization in the preformulation stages from the knowledge of the physicochemical properties of the active pharmaceutical ingredient (API). In this sense, it is evident that new compounds with low permeability and solubility/dissolution will have low and highly variable oral bioavailability, which may limit the chances of developing a clinically useful product.
Different provisional biopharmaceutical classification systems have been described in the literature. They mainly use alternative methodologies to predict intestinal permeability. Following the proposal of Kasim et al., JM-20 is a BCS Class 2, based on the aqueous solubility value at room temperature and in silico partition coefficients (log P and ClogP). JM-20 is also classified as BCS class 2 compound by the method proposed by Pham-The et al. where a provisional biopharmaceutical classification was developed based on solubility data (dose number, Do) and predicted or measured permeability in Caco-2 cells. At the same time, permeability values of JM-20 obtained with in vitro cell lines and in situ perfusion in rat were considered for the biopharmaceutical classification of this compound.

solubility ([1]; aqueous buffer, thermodynamic from solid, buffer pH 1.2, 37 °C, shake-flask, read-out: Solubility ± SD): 9.18 ± 0.16 µg/mL (≈ 22.7 µM)
solubility ([1]; aqueous buffer, thermodynamic from solid, buffer pH 3.5, 37 °C, shake-flask, read-out: Solubility ± SD): 12.7 ± 0.83 µg/mL (≈ 31.5 µM)
solubility ([1]; aqueous buffer, thermodynamic from solid, buffer pH 4.0, 37 °C, shake-flask, read-out: Solubility ± SD): 25.4 ± 0.66 µg/mL (≈ 62.8 µM)
solubility ([1]; aqueous buffer, thermodynamic from solid, buffer pH 4.5, 37 °C, shake-flask, read-out: Solubility ± SD): 30.8 ± 1.29 µg/mL (≈ 76.3 µM)
solubility ([1]; aqueous buffer, thermodynamic from solid, buffer pH 6.8, 37 °C, shake-flask, read-out: Solubility ± SD): 11.3 ± 0.69 µg/mL (≈ 27.9 µM)
solubility ([1]; aqueous buffer, thermodynamic from solid, buffer pH 7.4, 37 °C, shake-flask, read-out: Solubility ± SD): 12.6 ± 0.36 µg/mL (≈ 31.3 µM)
solubility ([1]; pH 1.2, acidic pH, read-out: Solubility at acidic pH (abstract)): 9.18 ± 0.16 µg/mL (≈ 22.7 µM)
Dose number (Do) ([1]; at the different pH values, dose 140 mg): greater than 1
D0 (dose number) ([1]; calculated with the lowest aqueous solubility): 61
Do (dose number) ([1]; pH 1.2): 61.00
Do (dose number) ([1]; pH 3.5): 44.03
Do (dose number) ([1]; pH 4.0): 22.06
Do (dose number) ([1]; pH 4.5): 18.16
Do (dose number) ([1]; pH 6.8): 49.56
Do (dose number) ([1]; pH 7.4): 44.30
BCSCaco-2 ([2]; BCS class from dose number and Caco-2 permeability): 2
BCSMDCK ([2]; BCS class from dose number and MDCK permeability): 2
BCSrat ([2]; BCS class from dose number and rat in situ permeability): 2
BCSGlobal ([2]; overall provisional BCS class): 2
Compound: CCOC(=O)C1=C(C)NC2=C(C=Nc3ccccc3N2)C1c1ccccc1[N+](=O)[O-] (stereo not shown) [JM-20, 3-ethoxycarbonyl-2-methyl-4-(2-nitrophenyl)-4,11-dihydro-1H-pyrido [2,3-b][1,5] benzodiazepine]
